Assay results from patent US6413983B1, “Benzopyranyl heterocycle derivatives, process for preparation thereof, and pharmaceutical compositions containing them” (Dongbu Hannong Chemical Co. Ltd., priority 2000, dated 2002).

What was measured:
[1] = tested on: isolated rat aorta constricted with methoxamine; assay: Vasodilation effects on isolated aorta of rats (methoxamine-constricted rings); details: isolated rat aorta constricted with methoxamine (3 μM); 50% relaxation
Text: Male Sprague-Dawly rats (350-450 g, obtained from the Experimental Animal Team of the Korea Research Institute of Chemical Technology) were knocked unconscious by hitting the occipital region, sacrificed by cervical dislocation, and underwent thoracotomy. After being quickly removed, the thoracic aorta was deprived of the adipose tissue and cut into aortic rings of 3 mm width. The aorta was lightly rubbed with cotton club soaked in a modified Krebs Henseleit buffer (Physiological Salt Solution, PSS) to remove the inner epithelial layer therefrom.
Thereafter, 3×10^−6 M methoxamine was applied to induce an intensive constriction in the vascular smooth muscle. When the vasoconstriction induced by the methoxamine was reached and maintained to a maximum, test compounds and controls were cumulatively added to the organ baths in concentrations of 1, 3, 10 and 30 μM so as to examine the vasodilation effect.
The change rate of constriction by the addition of the drugs compared to the maximal constriction induced by methoxamine was calculated to plot a concentration-relaxation response curve.

[2] = tested on: cerebral cortical neurons; assay: Protective activity for neuronal cells against iron-induced damage (LDH release); type: cell-based, rat; details: 30 μM compound, 50 uM FeSO4, 24 hours, LDH reduction rate vs control
Experimental: From the brains of 17-18 day-old rat embryos, cerebral cortical neurons were isolated and then, cultured at 37° C. for 7-9 days in a 5% CO2 incubator. The cortical cell cultures were washed twice with a minimum essential medium (MEM) to reduce the serum concentration to 0.2% and pre-treated for 30 min with 30 μM of each of test compounds. For the experiments, the test compounds were dissolved in DMSO and diluted in a medium. At this time, the final concentration of DMSO was not allowed to exceed 0.2%. For a control group, only vehicle was applied.
After the pre-treatment with test compounds or vehicle, FeSO4 was added to a final concentration of 50 uM, and the cultures were maintained for 24 hours in a CO2 incubator. During incubation, lactate dehydrogenase (LDH) was released into the medium upon neuronal death by the oxidative toxicity of iron. The extent of neuronal damage was assessed by measuring the amount of LDH released into the media. The protective effect of the compounds of interest on neurons was evaluated by calculating the LDH reduction rate of treatment group compared with that of the control group.

| Molecule | % Protection [2] | also measured |
| --- | --- | --- |
| CC1(C)Oc2ccc(C#N)cc2C(N2CCCC2=O)C1O (centres unmarked) [CromaKalim, Cromakalim, reference compound] | – | IC50 [1]: 67 nM |
| CCOC(=O)[C@@H]1Cc2ccccc2N1[C@@H]1c2cc([N+](=O)[O-])ccc2O[C@](C)(C(OC)OC)[C@H]1O [Example 4, 1-[(2S, 3S, 4R)-3,4-dihydro-2-dimethoxymethyl-3-hydroxy-2-methyl-6-nitro-2H-1-benzopyran-4-yl]-(2S)-2,3-dihydro-1H-indole-2-carboxylic acid ethyl ester] | – | % Protection ([2]; listed as EX. 4): 98% |
| COC(=O)[C@H]1Cc2ccccc2N1[C@H]1c2cc([N+](=O)[O-])ccc2O[C@](C)(C(OC)OC)[C@@H]1O [Example 5, 1-[(2S, 3R, 4S)-3,4-dihydro-2-dimethoxymethyl-3-hydroxy-2-methyl-6-nitro-2H-1-benzopyran-4-yl]-1H-(2R)-2,3-dihydroindole-2-carboxylic acid methyl ester] | 79% | – |
| CCOC(=O)[C@@H]1Cc2cc(OC)ccc2N1[C@H]1c2cc([N+](=O)[O-])ccc2O[C@](C)(C(OC)OC)[C@@H]1O [Example 12, 1-[(2S, 3R, 4S)-3,4-dihydro-2-dimethoxymethyl-3-hydroxy-2-methyl-6-nitro-2H-1-benzopyran-4-yl]-(2S)-2,3-dihydro-1H-5-methoxyindole-2-carboxylic acid ethyl ester] | 85% | – |
| CCOC(=O)[C@@H]1Cc2cc(F)ccc2N1[C@H]1c2cc([N+](=O)[O-])ccc2O[C@](C)(C(OC)OC)[C@@H]1O [Example 16, 1-[(2S, 3R, 4S)-3,4-dihydro-2-dimethoxymethyl-3-hydroxy-2-methyl-6-nitro-2H-1-benzopyran-4-yl]-(2S)-2,3-dihydro-1H-5-fluoroindole-2-carboxylic acid ethyl ester] | 73% | – |
| COC(=O)[C@H]1CCc2ccccc2N1[C@H]1c2cc([N+](=O)[O-])ccc2O[C@](C)(C(OC)OC)[C@@H]1O [Example 54, 1-[(2S, 3R, 4S)-3,4-dihydro-2-dimethoxymethyl-3-hydroxy-2-methyl-6-nitro-2H-1-benzopyran-4-yl]-(2R)-1,2,3,4-tetrahydro-1H-quinoline-2-carboxylic acid methyl ester] | 100% | % Protection ([2]; listed as EX. 54): 101% |
| (2S, 2aS, 10aR)-[(3,4-b)-2a,10a-dihydro-2-dimethoxymethyl-2-methyl-12-nitro-2H-1-benzopyrano]-[(1,2-d)-10H-indolino]-4-oxomorpholine [Example 63] | 100% | – |
